Results on four compounds are retold here after ChEMBL document CHEMBL1125058 (J Med Chem, 1990).

In one data set the target is T1, Aromatase (Homo sapiens, UniProt P11511).
T1 sequence (P11511 whole entry): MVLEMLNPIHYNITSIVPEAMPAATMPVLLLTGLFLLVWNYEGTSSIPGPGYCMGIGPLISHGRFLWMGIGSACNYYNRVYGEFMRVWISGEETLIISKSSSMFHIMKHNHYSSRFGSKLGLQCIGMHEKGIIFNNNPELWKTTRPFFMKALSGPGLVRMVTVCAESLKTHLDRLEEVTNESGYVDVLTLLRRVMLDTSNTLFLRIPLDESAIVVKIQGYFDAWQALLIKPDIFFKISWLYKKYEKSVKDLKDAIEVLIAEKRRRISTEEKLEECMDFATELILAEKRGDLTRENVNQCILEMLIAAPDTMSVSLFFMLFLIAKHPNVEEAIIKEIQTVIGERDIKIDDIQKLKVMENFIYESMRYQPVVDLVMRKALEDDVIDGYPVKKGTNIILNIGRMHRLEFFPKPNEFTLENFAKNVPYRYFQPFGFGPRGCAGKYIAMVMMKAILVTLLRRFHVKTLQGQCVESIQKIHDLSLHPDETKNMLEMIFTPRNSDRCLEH

Data set [1] in a line: Compound was evaluated for the spectral dissociation constant. In kind it is ADME. The note with it: read-out: Ks.

Description for Aromatase: Inhibition of Cytochrome P450 19A1 in human placenta

Turning to `CCCCCCC[C@]1(c2ccncc2)CCC(=O)NC1=O`, at Aromatase, the IC50 (usually the concentration at which inhibition is half-maximal) amounted to 3200 nM.

For the compound `CCCCCCCCN1C(=O)CCC(CC)(c2ccncc2)C1=O` (centres undefined), the Kd in data set [1] turned out to be 510 nM. At Aromatase, `CCCCCC[C@]1(c2ccncc2)CCC(=O)NC1=O` showed an IC50 of 3600 nM. On to `CCCCC[C@]1(c2ccncc2)CCC(=O)NC1=O`, for which half-maximal inhibition on Aromatase (IC50) was put at 2500 nM.
